The molecules below were run on MHH-CALL-3 (assay: selective drug sensitivity score (sDSS, relative to normal bone marrow) (sDSS (score)); higher = more potent and effective on the cell line relative to normal bone marrow cells). Settings: 72 h.
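Further: ALL cell lines in 384-well plates, five doses spanning 10,000-fold, each plate scaled between vehicle and 100 µmol/L benzalkonium chloride controls, sDSS an adapted area-under-curve metric.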

Row | Compound | selective drug sensitivity score
1 | CNC(=O)c1ccc(C)c(-n2c(C)cc(OCc3ccc(F)cc3F)c(Br)c2=O)c1 (top concentration 1000 nM) | 0
2 | CONC(=O)c1ccccc1Nc1cc(Nc2cc(C)nn2C(C)C)ncc1Cl (top concentration 1000 nM) | -0.94
3 | CCOc1ccn(-c2ccc(F)cc2)c(=O)c1C(=O)Nc1ccc(Oc2ccnc(N)c2Cl)c(F)c1 (top concentration 2500 nM) | 0
4 | CC[C@@H]1[C@H](F)C(=O)N[C@@H]1COc1nccc2cc(C(N)=O)c(OC)cc12 (top concentration 10000 nM) | 1.58
5 | C[C@H]1C[C@@H](n2c(Nc3ccc(OC(F)(F)F)cc3)nc3cc(CCC(=O)O)ccc32)CC(C)(C)C1 (top concentration 10000 nM) | -0.14
6 | O=C(NCc1ccncc1)C12CC3CC(C1)CC(c1ccc(Cl)cc1)(C3)C2 (top concentration 50000 nM) | 2.78
7 | O=C(O)c1ccc(CN2CCC(CN[C@@H]3C[C@H]3c3ccccc3)CC2)cc1 (top concentration 100000 nM) | -0.62
8 | COc1cc(N2CCN(C)CC2)ccc1Nc1nccc(-c2cn(C)c3cnccc23)n1 [AZ191] (top concentration 10000 nM) | -2.72
9 | Cc1cc(Nc2nc(N[C@@H](C)c3ncc(F)cn3)ncc2Cl)[nH]n1 [AZD1480] (top concentration 1000 nM) | -1.28
10 | COc1cc(CCc2cc(NC(=O)c3ccc(N4CC(C)NC(C)C4)cc3)n[nH]2)cc(OC)c1 (stereo not given) [AZD4547] (top concentration 1000 nM) | -0.14
11 | CN(C)C(=O)c1ccc(S(=O)(=O)c2ccc(NC(=O)[C@@](C)(O)C(F)(F)F)c(Cl)c2)cc1 [AZD7545] (top concentration 10000 nM) | 0.1
12 | COc1cc(C)c(/C=C/C(C)=C/C=C/C(C)=C/C(=O)O)c(C)c1C [Acitretin] (top concentration 10000 nM) | -0.2
13 | CCC1(c2ccc(N)cc2)CCC(=O)NC1=O (stereo not given) [Aminoglutethimide] (top concentration 10000 nM) | 0
14 | CNC(=O)c1ccc(N2C(=S)N(c3cnc(C#N)c(C(F)(F)F)c3)C(=O)C23CCC3)cc1F [Apalutamide] (top concentration 10000 nM) | 0
15 | N#CC1(c2ccc(NC(=O)c3cccnc3NCc3ccncc3)cc2)CCCC1 [Apatinib] (top concentration 10000 nM) | 0
16 | Cc1nc2cccc(N)c2c(=O)n1C1CCC(=O)NC1=O (stereo not given) [Avadomide (CC122)] (top concentration 10000 nM) | 0
17 | Nc1nc(Nc2ccc3c(c2)CC[C@@H](N2CCCC2)CC3)nn1-c1cc2c(nn1)-c1ccccc1CCC2 [BGB324] (top concentration 10000 nM) | -0.98
18 | CC1(C)C(C(=O)Nc2ccc(S(=O)(=O)c3ccc(NC(=O)C4C(C)(C)C4(C)C)cc3)cc2)C1(C)C [BRD7116] (top concentration 10000 nM) | -0.24

These molecules were tested on MOLT-14 in the same assay as above. Settings: 72 h.

Row | Compound | selective drug sensitivity score
19 | CNC(=O)c1ccc(C)c(-n2c(C)cc(OCc3ccc(F)cc3F)c(Br)c2=O)c1 (top concentration 1000 nM) | 0
20 | CONC(=O)c1ccccc1Nc1cc(Nc2cc(C)nn2C(C)C)ncc1Cl (top concentration 1000 nM) | -0.94
21 | CCOc1ccn(-c2ccc(F)cc2)c(=O)c1C(=O)Nc1ccc(Oc2ccnc(N)c2Cl)c(F)c1 (top concentration 2500 nM) | 0
22 | CC[C@@H]1[C@H](F)C(=O)N[C@@H]1COc1nccc2cc(C(N)=O)c(OC)cc12 (top concentration 10000 nM) | 1.38
23 | C[C@H]1C[C@@H](n2c(Nc3ccc(OC(F)(F)F)cc3)nc3cc(CCC(=O)O)ccc32)CC(C)(C)C1 (top concentration 10000 nM) | 2.96
24 | O=C(NCc1ccncc1)C12CC3CC(C1)CC(c1ccc(Cl)cc1)(C3)C2 (top concentration 50000 nM) | 1.38
25 | O=C(O)c1ccc(CN2CCC(CN[C@@H]3C[C@H]3c3ccccc3)CC2)cc1 (top concentration 100000 nM) | -0.62
26 | COc1cc(N2CCN(C)CC2)ccc1Nc1nccc(-c2cn(C)c3cnccc23)n1 [AZ191] (top concentration 10000 nM) | -1.32
27 | Cc1cc(Nc2nc(N[C@@H](C)c3ncc(F)cn3)ncc2Cl)[nH]n1 [AZD1480] (top concentration 1000 nM) | -4.28
28 | COc1cc(CCc2cc(NC(=O)c3ccc(N4CC(C)NC(C)C4)cc3)n[nH]2)cc(OC)c1 (stereo not given) [AZD4547] (top concentration 1000 nM) | -0.14
29 | CN(C)C(=O)c1ccc(S(=O)(=O)c2ccc(NC(=O)[C@@](C)(O)C(F)(F)F)c(Cl)c2)cc1 [AZD7545] (top concentration 10000 nM) | 1
30 | COc1cc(C)c(/C=C/C(C)=C/C=C/C(C)=C/C(=O)O)c(C)c1C [Acitretin] (top concentration 10000 nM) | -1.4
31 | CCC1(c2ccc(N)cc2)CCC(=O)NC1=O (stereo not given) [Aminoglutethimide] (top concentration 10000 nM) | 0
32 | CNC(=O)c1ccc(N2C(=S)N(c3cnc(C#N)c(C(F)(F)F)c3)C(=O)C23CCC3)cc1F [Apalutamide] (top concentration 10000 nM) | 0
33 | N#CC1(c2ccc(NC(=O)c3cccnc3NCc3ccncc3)cc2)CCCC1 [Apatinib] (top concentration 10000 nM) | 0
34 | Cc1nc2cccc(N)c2c(=O)n1C1CCC(=O)NC1=O (stereo not given) [Avadomide (CC122)] (top concentration 10000 nM) | 0
35 | Nc1nc(Nc2ccc3c(c2)CC[C@@H](N2CCCC2)CC3)nn1-c1cc2c(nn1)-c1ccccc1CCC2 [BGB324] (top concentration 10000 nM) | 1.62
36 | CC1(C)C(C(=O)Nc2ccc(S(=O)(=O)c3ccc(NC(=O)C4C(C)(C)C4(C)C)cc3)cc2)C1(C)C [BRD7116] (top concentration 10000 nM) | 2.16

The molecules below were run on NALM-16 in the same assay as above. Settings: 72 h.

Row | Compound | selective drug sensitivity score
37 | CNC(=O)c1ccc(C)c(-n2c(C)cc(OCc3ccc(F)cc3F)c(Br)c2=O)c1 (top concentration 1000 nM) | 0
38 | CONC(=O)c1ccccc1Nc1cc(Nc2cc(C)nn2C(C)C)ncc1Cl (top concentration 1000 nM) | -0.94
39 | CCOc1ccn(-c2ccc(F)cc2)c(=O)c1C(=O)Nc1ccc(Oc2ccnc(N)c2Cl)c(F)c1 (top concentration 2500 nM) | 1
40 | CC[C@@H]1[C@H](F)C(=O)N[C@@H]1COc1nccc2cc(C(N)=O)c(OC)cc12 (top concentration 10000 nM) | -1.32
41 | C[C@H]1C[C@@H](n2c(Nc3ccc(OC(F)(F)F)cc3)nc3cc(CCC(=O)O)ccc32)CC(C)(C)C1 (top concentration 10000 nM) | -0.14
42 | O=C(NCc1ccncc1)C12CC3CC(C1)CC(c1ccc(Cl)cc1)(C3)C2 (top concentration 50000 nM) | -0.72
43 | O=C(O)c1ccc(CN2CCC(CN[C@@H]3C[C@H]3c3ccccc3)CC2)cc1 (top concentration 100000 nM) | -0.62
44 | COc1cc(N2CCN(C)CC2)ccc1Nc1nccc(-c2cn(C)c3cnccc23)n1 [AZ191] (top concentration 10000 nM) | -3.72
45 | Cc1cc(Nc2nc(N[C@@H](C)c3ncc(F)cn3)ncc2Cl)[nH]n1 [AZD1480] (top concentration 1000 nM) | -4.28
